PubChem BioAssay (NCI)
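Step 1: Grow cells in 96-well plates. Step 2: Expose to compound for 48 hours at 5 concentrations. Step 3: Interpolate endpoints linearly; if unreached, use highest concentration. TGI: total growth inhibition.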

Assays:
Assay in all cases: NCI-60 cell line screen, 48 h
[1] = system: 786-0 renal
[2] = system: A549 NSCLC
[3] = system: ACHN renal
[4] = system: CAKI-1 renal
[5] = system: CCRF-CEM leukemia
[6] = system: COLO 205 colon
[7] = system: DU-145 prostate
[8] = system: EKVX NSCLC
[9] = system: HCC-2998 colon
[10] = system: HCT-116 colon
[11] = system: HCT-15 colon
[12] = system: HL-60(TB) leukemia
[13] = system: HOP-62 NSCLC
[14] = system: HOP-92 NSCLC
[15] = system: HS 578T breast
[16] = system: HT29 colon
[17] = system: IGROV1 ovarian
[18] = system: K-562 leukemia
[19] = system: KM12 colon
[20] = system: LOX IMVI melanoma
[21] = system: M14 melanoma
[22] = system: MCF7 breast
[23] = system: MDA-MB-231 breast
[24] = system: MDA-MB-435
[25] = system: MDA-N
[26] = system: MOLT-4 leukemia
[27] = system: NCI-H226 lung
[28] = system: NCI-H23 lung
[29] = system: NCI-H460 lung
[30] = system: NCI-H522 lung
[31] = system: NCI/ADR-RES ovarian
[32] = system: OVCAR-3 ovarian
[33] = system: OVCAR-4 ovarian
[34] = system: OVCAR-5 ovarian
[35] = system: OVCAR-8 ovarian
[36] = system: PC-3 prostate
[37] = system: RPMI-8226 leukemia
[38] = system: RXF 393 renal
[39] = system: SF-268 CNS
[40] = system: SF-295 CNS
[41] = system: SF-539 CNS
[42] = system: SK-MEL-2 melanoma
[43] = system: SK-MEL-28 melanoma
[44] = system: SK-MEL-5 melanoma
[45] = system: SK-OV-3 ovarian
[46] = system: SN12C renal
[47] = system: SNB-19 CNS
[48] = system: SNB-75 CNS
[49] = system: SR leukemia
[50] = system: SW-620 colon
[51] = system: T-47D breast
[52] = system: TK-10 renal
[53] = system: U251 CNS
[54] = system: UACC-257 melanoma
[55] = system: UACC-62 melanoma
[56] = system: UO-31 renal

Compound: Cc1nc2ccc(Br)cc2c(=O)n1-c1nnc(C(C)(C)C)s1
- TGI [1]: > 10 µM
- TGI [2]: > 10 µM
- TGI [3]: > 10 µM
- TGI [4]: > 10 µM
- TGI [5]: > 10 µM
- TGI [6]: > 10 µM
- TGI [7]: > 10 µM
- TGI [8]: > 10 µM
- TGI [9]: > 10 µM
- TGI [10]: > 10 µM
- TGI [11]: > 10 µM
- TGI [12]: > 10 µM
- TGI [13]: > 10 µM
- TGI [14]: > 10 µM
- TGI [15]: > 10 µM
- TGI [16]: > 10 µM
- TGI [17]: > 10 µM
- TGI [18]: > 10 µM
- TGI [19]: > 10 µM
- TGI [20]: > 10 µM
- TGI [21]: > 10 µM
- TGI [22]: > 10 µM
- TGI [23]: > 10 µM
- TGI [24]: > 10 µM
- TGI [25]: > 10 µM
- TGI [26]: > 10 µM
- TGI [27]: > 10 µM
- TGI [28]: > 10 µM
- TGI [29]: > 10 µM
- TGI [30]: > 10 µM
- TGI [31]: > 10 µM
- TGI [32]: > 10 µM
- TGI [33]: > 10 µM
- TGI [34]: > 10 µM
- TGI [35]: > 10 µM
- TGI [36]: > 10 µM
- TGI [37]: > 10 µM
- TGI [38]: > 10 µM
- TGI [39]: > 10 µM
- TGI [40]: > 10 µM
- TGI [41]: > 10 µM
- TGI [42]: > 10 µM
- TGI [43]: > 10 µM
- TGI [44]: > 10 µM
- TGI [45]: > 10 µM
- TGI [46]: > 10 µM
- TGI [47]: > 10 µM
- TGI [48]: > 10 µM
- TGI [49]: > 10 µM
- TGI [50]: > 10 µM
- TGI [51]: > 10 µM
- TGI [52]: > 10 µM
- TGI [53]: > 10 µM
- TGI [54]: > 10 µM
- TGI [55]: > 10 µM
- TGI [56]: 4.45 µM

Compound: CC(C)(C)c1cc([N+](=O)[O-])cc([N+](=O)[O-])c1O
- TGI [1]: > 10 µM
- TGI [2]: > 10 µM
- TGI [3]: > 10 µM
- TGI [4]: > 10 µM
- TGI [5]: > 10 µM
- TGI [6]: > 10 µM
- TGI [7]: > 10 µM
- TGI [8]: > 10 µM
- TGI [9]: > 10 µM
- TGI [10]: > 10 µM
- TGI [11]: > 10 µM
- TGI [12]: > 10 µM
- TGI [13]: > 10 µM
- TGI [14]: > 10 µM
- TGI [15]: > 10 µM
- TGI [16]: > 10 µM
- TGI [17]: > 10 µM
- TGI [18]: > 10 µM
- TGI [19]: > 10 µM
- TGI [20]: > 10 µM
- TGI [21]: > 10 µM
- TGI [22]: > 10 µM
- TGI [23]: > 10 µM
- TGI [24]: > 10 µM
- TGI [25]: > 10 µM
- TGI [26]: > 10 µM
- TGI [27]: > 10 µM
- TGI [28]: > 10 µM
- TGI [29]: > 10 µM
- TGI [30]: > 10 µM
- TGI [31]: > 10 µM
- TGI [32]: > 10 µM
- TGI [33]: > 10 µM
- TGI [34]: > 10 µM
- TGI [35]: > 10 µM
- TGI [36]: > 10 µM
- TGI [37]: > 10 µM
- TGI [38]: > 10 µM
- TGI [39]: > 10 µM
- TGI [40]: > 10 µM
- TGI [41]: > 10 µM
- TGI [42]: > 10 µM
- TGI [43]: > 10 µM
- TGI [44]: > 10 µM
- TGI [45]: > 10 µM
- TGI [46]: > 10 µM
- TGI [47]: > 10 µM
- TGI [48]: > 10 µM
- TGI [49]: > 10 µM
- TGI [50]: > 10 µM
- TGI [51]: > 10 µM
- TGI [52]: > 10 µM
- TGI [53]: > 10 µM
- TGI [54]: > 10 µM
- TGI [55]: > 10 µM
- TGI [56]: > 10 µM
